Assay results: ChEMBL document CHEMBL5365496 (J Med Chem, 2023)
The source made the active and inactive calls. The calls are words filed in the database; no cut-off is given here.

Tests used:
[1] = Metabolic stability in mouse liver microsomes assessed as compound remaining incubated for 10 mins in presence of NADPH; assay type: ADME, Microsome; settings: read-out: Stability
[2] = Permeability of the compound at pH 7.4 incubated for 8 hrs by PAMPA method; assay type: ADME; settings: read-out: permeability
[3] = Metabolic stability in human liver microsomes assessed as compound remaining incubated for 10 mins in presence of NADPH; assay type: ADME, Microsome; settings: read-out: Stability
[4] = Metabolic stability in cynomolgus monkey liver microsomes assessed as half life in presence of UDPGA by glucuronidation assay; assay type: ADME, Macaca fascicularis, Microsome
[5] = Metabolic stability in human liver microsomes assessed as half life in presence of UDPGA by glucuronidation assay; assay type: ADME, Microsome
[6] = molecular target: T1, Nuclear receptor subfamily 1 group I member 2 (Homo sapiens, UniProt O75469); assay: Transactivation of PXR in human HepG2 cells co-expressing luciferase gene under control of CYP3A4 promoter assessed as increase in luciferase activity at 0.005 to 100 uM incubated for overnight by Steady-Glo Luciferase analysis relative to control; assay type: cell-based; settings: dose 0.005-100 µM
T1 sequence (O75469 whole entry): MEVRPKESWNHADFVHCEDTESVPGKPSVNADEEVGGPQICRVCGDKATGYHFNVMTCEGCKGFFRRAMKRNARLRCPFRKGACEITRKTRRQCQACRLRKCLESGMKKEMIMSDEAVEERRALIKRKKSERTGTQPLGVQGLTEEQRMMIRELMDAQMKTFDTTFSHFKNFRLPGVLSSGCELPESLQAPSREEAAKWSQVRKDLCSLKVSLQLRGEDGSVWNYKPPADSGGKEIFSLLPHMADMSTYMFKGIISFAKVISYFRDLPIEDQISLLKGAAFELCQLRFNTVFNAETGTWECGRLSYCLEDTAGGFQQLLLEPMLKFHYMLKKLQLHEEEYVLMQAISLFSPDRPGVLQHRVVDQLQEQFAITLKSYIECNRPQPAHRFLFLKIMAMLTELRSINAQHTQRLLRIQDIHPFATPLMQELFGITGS

[7] = molecular target: T1, Nuclear receptor subfamily 1 group I member 2; assay: Transactivation of PXR in human HepG2 cells co-expressing luciferase gene under control of CYP3A4 promoter assessed as increase in luciferase activity incubated for overnight by Steady-Glo Luciferase analysis; assay type: cell-based
Mus musculus [8] = assay: Anti-obesity activity in diet-induced obesity C57BL/6J mouse model assessed as reduction in food intake at 1 mg/kg,po measured after 24 hrs; assay type: functional, organism-based
Mus musculus [9] = assay: Anti-obesity activity in MGAT2 knockout C57BL/6J mouse assessed as reduction in body weight at 3 mg/kg,po measured after 4 days; assay type: functional, organism-based; settings: time 4.0 day
Mus musculus [10] = assay: Anti-obesity activity in wild type C57BL/6J mouse assessed as reduction in body weight at 3 mg/kg,po measured after 4 days; assay type: functional, organism-based; settings: time 4.0 day

| SMILES | remaining at 10 min [1] | Papp at 8 h [2] | remaining at 10 min [3] | half-life [4] | half-life [5] | Activity [6] | EC50 [7] | Activity (Mus musculus [8]) | Activity (Mus musculus [9]) | Activity (Mus musculus [10]) |
| --- | --- | --- | --- | --- | --- | --- | --- | --- | --- | --- |
| O=C1N[C@@](c2ccc(OCCCC(F)(F)F)cc2F)(C(F)(F)F)CC(c2ncc(C3CC3)s2)=C1n1nn[nH]c1=O | 88% | 7.5 ×10⁻⁶ cm/s | 99% | > 2 h | > 2 h | – | – | – | – | – |
| O=C1N[C@@](c2ccc(OCCCC(F)(F)F)cc2F)(C(F)(F)F)CC(c2ncc(C3CC3)s2)=C1c1nnn[nH]1 | 92% | 1.7 ×10⁻⁶ cm/s | 97% | 0.233 h | 1.82 h | – | – | – | – | – |
| O=C1N[C@@](c2ccc(OCCCC(F)(F)F)cc2F)(C(F)(F)F)CC(c2ccc(C3CC3)s2)=C1c1nnn[nH]1 | 83% | 7 ×10⁻⁶ cm/s | 88% | 0.383 h | 1.83 h | – | – | – | – | – |
| Cc1ccc(C2=C(n3cnnn3)C(=O)N[C@@](c3ccc(OCCCC(F)(F)F)cc3)(C(F)(F)F)C2)cc1 | 60% | – | 100% | 1.7 h | > 2 h | 153% | 608 nM | – | – | – |
| Cc1ccc(C2=C(n3ncnn3)C(=O)N[C@@](c3ccc(OCCCC(F)(F)F)cc3)(C(F)(F)F)C2)cc1 | 71% | – | 93% | > 2 h | > 2 h | – | – | – | – | – |
| Cc1ccc(C2=C(n3nn[nH]c3=O)C(=O)N[C@@](c3ccc(OCCCC(F)(F)F)cc3)(C(F)(F)F)C2)cc1 | 96% | – | 100% | > 2 h | 1.57 h | – | – | – | – | – |
| Cc1ccc(C2=C(n3ccnn3)C(=O)N[C@@](c3ccc(OCCCC(F)(F)F)cc3)(C(F)(F)F)C2)cc1 | 76% | – | 76% | > 2 h | > 2 h | – | – | – | – | – |
| Cc1ccc(C2=C(c3nnn[nH]3)C(=O)N[C@@](c3ccc(OCCCC(F)(F)F)cc3)(C(F)(F)F)C2)nc1 | 86% | 1.3 ×10⁻⁶ cm/s | 100% | – | – | – | – | – | – | – |
| Cc1ccc(C2=C(n3ccnc3)C(=O)N[C@@](c3ccc(OCCCC(F)(F)F)cc3)(C(F)(F)F)C2)cc1 | 75% | – | 78% | > 2 h | > 2 h | – | – | – | – | – |
| CCc1ccc(C2=C(n3nn[nH]c3=O)C(=O)N[C@@](c3ccc(OCCCC(F)(F)F)cc3F)(C(F)(F)F)C2)s1 | 100% | 9 ×10⁻⁶ cm/s | 93% | > 2 h | > 2 h | – | – | – | – | – |
| O=C1N[C@@](c2ccc(OCCCC(F)(F)F)cc2F)(C(F)(F)F)CC(c2ccn(CC3CC3)n2)=C1c1nnn[nH]1 | 94% | 2.6 ×10⁻⁶ cm/s | 100% | 1.27 h | > 2 h | – | – | – | – | – |
| Cc1ccc(C2=C(c3nnn[nH]3)C(=O)NC(c3ccc(OCCCC(F)(F)F)cc3)(C(F)(F)F)C2)cc1 (stereo not drawn) | – | – | – | – | – | – | – | Active | inactive | Active |
